Test results taken from the NIST ThermoML archive (doi:10.1021/acs.jced.5b00256).
Numbers after ± are expanded uncertainties.

How the values were obtained:
[1] = refractive index (Na D-line) (dimensionless); xn = mol fraction of the nth substance listed; settings: 100 kPa, Liquid, Standard Abbe refractometry
[2] = relative permittivity at various frequencies (dimensionless); xn = mol fraction of the nth substance listed; settings: 100 kPa, Liquid, Frequency=2 MHz, Parallel plate capacitor

COc1cccc(Br)c1 [1-bromo-3-methoxybenzene] + CCCO
Settings | refractive index, 303.15 K | refractive index, 313.15 K | refractive index, 323.15 K | refractive index, 333.15 K | relative permittivity, 303.15 K | relative permittivity, 313.15 K | relative permittivity, 323.15 K | relative permittivity, 333.15 K
[1], x2 = 0 | 1.56 ± 0.002 | 1.558 ± 0.002 | 1.553 ± 0.002 | 1.55 ± 0.002 | – | – | – | –
[1], x2 = 0.107 | 1.555 ± 0.002 | 1.552 ± 0.002 | 1.548 ± 0.002 | 1.546 ± 0.002 | – | – | – | –
[1], x2 = 0.206 | 1.544 ± 0.002 | 1.54 ± 0.002 | 1.535 ± 0.002 | 1.532 ± 0.002 | – | – | – | –
[1], x2 = 0.296 | 1.53 ± 0.002 | 1.528 ± 0.002 | 1.523 ± 0.002 | 1.519 ± 0.002 | – | – | – | –
[1], x2 = 0.38 | 1.517 ± 0.002 | 1.515 ± 0.002 | 1.512 ± 0.002 | 1.508 ± 0.002 | – | – | – | –
[1], x2 = 0.457 | 1.504 ± 0.002 | 1.501 ± 0.002 | 1.5 ± 0.002 | 1.497 ± 0.002 | – | – | – | –
[1], x2 = 0.529 | 1.493 ± 0.002 | 1.489 ± 0.002 | 1.488 ± 0.002 | 1.484 ± 0.002 | – | – | – | –
[1], x2 = 0.596 | 1.484 ± 0.002 | 1.482 ± 0.002 | 1.477 ± 0.002 | 1.474 ± 0.002 | – | – | – | –
[1], x2 = 0.658 | 1.473 ± 0.002 | 1.468 ± 0.002 | 1.464 ± 0.002 | 1.461 ± 0.002 | – | – | – | –
[1], x2 = 0.716 | 1.461 ± 0.002 | 1.458 ± 0.002 | 1.449 ± 0.002 | 1.447 ± 0.002 | – | – | – | –
[1], x2 = 0.771 | 1.447 ± 0.002 | 1.444 ± 0.002 | 1.437 ± 0.002 | 1.435 ± 0.002 | – | – | – | –
[1], x2 = 0.822 | 1.435 ± 0.002 | 1.429 ± 0.002 | 1.425 ± 0.002 | 1.423 ± 0.002 | – | – | – | –
[1], x2 = 0.871 | 1.421 ± 0.002 | 1.418 ± 0.002 | 1.413 ± 0.002 | 1.41 ± 0.002 | – | – | – | –
[1], x2 = 0.916 | 1.41 ± 0.002 | 1.405 ± 0.002 | 1.401 ± 0.002 | 1.398 ± 0.002 | – | – | – | –
[1], x2 = 0.959 | 1.396 ± 0.002 | 1.392 ± 0.002 | 1.388 ± 0.002 | 1.385 ± 0.002 | – | – | – | –
[2], x2 = 0 | – | – | – | – | 7.01 ± 0.6 | 6.85 ± 0.6 | 6.74 ± 0.6 | 6.6 ± 0.6
[2], x2 = 0.107 | – | – | – | – | 7.18 ± 0.6 | 7.03 ± 0.6 | 6.89 ± 0.6 | 6.7 ± 0.6
[2], x2 = 0.206 | – | – | – | – | 7.55 ± 0.6 | 7.39 ± 0.6 | 7.15 ± 0.6 | 6.95 ± 0.6
[2], x2 = 0.296 | – | – | – | – | 8.05 ± 0.6 | 7.83 ± 0.6 | 7.55 ± 0.6 | 7.23 ± 0.6
[2], x2 = 0.38 | – | – | – | – | 8.67 ± 0.6 | 8.39 ± 0.6 | 8.08 ± 0.6 | 7.65 ± 0.6
[2], x2 = 0.457 | – | – | – | – | 9.46 ± 0.6 | 9.11 ± 0.6 | 8.68 ± 0.6 | 8.2 ± 0.6
[2], x2 = 0.529 | – | – | – | – | 10.27 ± 0.6 | 9.87 ± 0.6 | 9.4 ± 0.6 | 8.74 ± 0.6
[2], x2 = 0.596 | – | – | – | – | 11.08 ± 0.6 | 10.61 ± 0.6 | 10.11 ± 0.6 | 9.38 ± 0.6
[2], x2 = 0.658 | – | – | – | – | 12.04 ± 0.6 | 11.56 ± 0.6 | 10.94 ± 0.6 | 10.15 ± 0.6
[2], x2 = 0.716 | – | – | – | – | 12.93 ± 0.6 | 12.39 ± 0.6 | 11.71 ± 0.6 | 10.89 ± 0.6
[2], x2 = 0.771 | – | – | – | – | 13.98 ± 0.6 | 13.42 ± 0.6 | 12.88 ± 0.6 | 11.8 ± 0.6
[2], x2 = 0.822 | – | – | – | – | 15.14 ± 0.6 | 14.52 ± 0.6 | 13.63 ± 0.6 | 12.43 ± 0.6
[2], x2 = 0.871 | – | – | – | – | 16.23 ± 0.6 | 15.6 ± 0.6 | 14.65 ± 0.6 | 13.33 ± 0.6
[2], x2 = 0.916 | – | – | – | – | 17.33 ± 0.6 | 16.62 ± 0.6 | 15.64 ± 0.6 | 14.3 ± 0.6
[2], x2 = 0.959 | – | – | – | – | 18.58 ± 0.6 | 17.66 ± 0.6 | 16.7 ± 0.6 | 15.22 ± 0.6
